The text below walks through data of PubChem BioAssay (NCI).

Test systems include RPMI-8226 leukemia; HCC-2998 colon; HCT-15 colon; MOLT-4 leukemia; MDA-MB-435; SF-295 CNS; SF-539 CNS; IGROV1 ovarian; OVCAR-5 ovarian; K-562 leukemia; HT29 colon; NCI-H522 lung; M14 melanoma; HOP-92 NSCLC; A498 renal; TK-10 renal; KM12 colon.
What all share (test): NCI anticancer screen, dose series, 48 h

The structures appear in SMILES notation.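 How tested: cells in 96-well plates exposed to compound for 48 hours at five concentrations. TGI marks complete inhibition of growth.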

For the molecule `COC(=O)C1(Cc2ccccc2)Cc2ccc3c(c2C1=O)CCC3` (stereo unspecified), the TGI with RPMI-8226 leukemia was over 90.3 µM; with HCC-2998 colon, over 100 µM; in the assay with HCT-15 colon it was over 100 µM; in the assay with MOLT-4 leukemia, 69.5 µM; in the assay on MDA-MB-435, over 77.9 µM; in the assay with SF-295 CNS it was over 100 µM. In addition, the TGI in the assay on SF-539 CNS is over 76.9 µM; in the assay with IGROV1 ovarian, over 100 µM; in the assay with OVCAR-5 ovarian it was over 100 µM; with K-562 leukemia it was over 100 µM; with HT29 colon it was over 89.6 µM; with NCI-H522 lung it was 75.5 µM. Also, the TGI was 97.7 µM in the assay on M14 melanoma; over 73 µM with HOP-92 NSCLC; over 89.8 µM in the assay on A498 renal; over 84 µM in the assay on TK-10 renal; over 100 µM in the assay with KM12 colon.
Regarding `Cc1[nH]c(=O)nc(NCCNCCO)c1C(=O)Nc1c2ccccc2nc2ccccc12`, the TGI with RPMI-8226 leukemia, in the assay with HCC-2998 colon, in the assay on HCT-15 colon, with MOLT-4 leukemia, in the assay on MDA-MB-435 and with SF-295 CNS was over 100 µM in each case. Besides, the TGI in the assay on SF-539 CNS, with IGROV1 ovarian, with OVCAR-5 ovarian, in the assay on K-562 leukemia, in the assay with HT29 colon and in the assay with NCI-H522 lung was over 100 µM each time. Besides, the TGI with M14 melanoma, in the assay on HOP-92 NSCLC, in the assay with A498 renal, with TK-10 renal and in the assay on KM12 colon was over 100 µM in each case.
For `Oc1ccc(Cn2c(-c3ccc(O)c(O)c3)nc3ccccc32)cc1O`, the TGI in the assay with RPMI-8226 leukemia was 46.1 µM; with HCC-2998 colon it was 27.3 µM; in the assay with HCT-15 colon, over 100 µM; in the assay with MOLT-4 leukemia, 12.4 µM; with MDA-MB-435 it was 32 µM; in the assay on SF-295 CNS it was 68 µM. The TGI with SF-539 CNS was 24.1 µM; in the assay with IGROV1 ovarian, 66.4 µM; with OVCAR-5 ovarian, over 100 µM; with K-562 leukemia, 55.9 µM; in the assay on HT29 colon it was 84.7 µM; in the assay on NCI-H522 lung, 17.1 µM. For the same molecule, the TGI in the assay with M14 melanoma was 42.2 µM; in the assay on HOP-92 NSCLC it was 41.9 µM; in the assay on A498 renal, over 100 µM; in the assay with TK-10 renal it was 38 µM; in the assay with KM12 colon, 35 µM.
With `CCOC(=O)c1[nH]c2ccccc2c1C(=O)C[C@H](NC(=O)C(F)(F)F)C(=O)OC`, the TGI in the assay with RPMI-8226 leukemia, in the assay with HCC-2998 colon, in the assay on HCT-15 colon, in the assay with MOLT-4 leukemia, in the assay on MDA-MB-435 and in the assay with SF-295 CNS was over 100 µM each time. Further, the TGI in the assay with SF-539 CNS, in the assay on IGROV1 ovarian, with OVCAR-5 ovarian, in the assay with K-562 leukemia, in the assay with HT29 colon and in the assay with NCI-H522 lung was over 100 µM in each case. Also, the TGI with M14 melanoma, in the assay on HOP-92 NSCLC, with A498 renal, in the assay on TK-10 renal and in the assay with KM12 colon was over 100 µM in each case.
For `CCN(CC)CCCNc1nc2ccccc2c2[nH]c3ccc(OC)cc3c12`, the TGI in the assay with RPMI-8226 leukemia was found to be 9.41 µM; with HCC-2998 colon, 2.33 µM; with HCT-15 colon, 3.05 µM; in the assay on MOLT-4 leukemia it was 1.69 µM; in the assay on MDA-MB-435 it was 2.99 µM; with SF-295 CNS, 2.39 µM. Moreover, the TGI in the assay on SF-539 CNS was determined as 3.67 µM; with IGROV1 ovarian, 3.72 µM; in the assay with OVCAR-5 ovarian it was 3.18 µM; in the assay on K-562 leukemia, 3.44 µM; in the assay on HT29 colon it was 2.05 µM; with NCI-H522 lung it was 2.88 µM. For the same molecule, the TGI in the assay with M14 melanoma came out at 3.1 µM; in the assay on HOP-92 NSCLC, 9.53 µM; in the assay on A498 renal it was 5.27 µM; with TK-10 renal it was 5.55 µM; with KM12 colon it was 2.03 µM.
As to `CN(C)c1nc(-c2ccccc2)c(C(=O)c2c[nH]c3ccccc23)s1`, the TGI in the assay on RPMI-8226 leukemia is 32 µM; in the assay on HCC-2998 colon, over 70.6 µM; in the assay on HCT-15 colon, over 100 µM; in the assay with MOLT-4 leukemia, over 82.6 µM; in the assay with MDA-MB-435, over 31.1 µM; in the assay on SF-295 CNS, over 100 µM. In addition, the TGI with SF-539 CNS was over 100 µM; with IGROV1 ovarian, over 44.7 µM; with OVCAR-5 ovarian it was over 100 µM; in the assay on K-562 leukemia, over 100 µM; with HT29 colon it was over 100 µM; with NCI-H522 lung it was 10.4 µM. The TGI with M14 melanoma was over 100 µM; with HOP-92 NSCLC it was over 33.2 µM; in the assay with A498 renal, over 100 µM; in the assay with TK-10 renal it was over 76.3 µM; in the assay on KM12 colon, over 100 µM.
`O=c1oc2ccc3ccccc3c2cc1-c1nc2ccccc2o1`: the TGI is over 63.4 µM with RPMI-8226 leukemia; over 100 µM with HCC-2998 colon; over 100 µM with HCT-15 colon; over 79 µM with MOLT-4 leukemia; over 60.6 µM in the assay on MDA-MB-435; over 59.3 µM in the assay on SF-295 CNS. Moreover, the TGI is 29.3 µM with SF-539 CNS; 30 µM in the assay with IGROV1 ovarian; over 100 µM with OVCAR-5 ovarian; over 100 µM in the assay with K-562 leukemia; 48.4 µM with HT29 colon; 59.4 µM with NCI-H522 lung. For the same molecule, the TGI with M14 melanoma was over 56 µM; in the assay with HOP-92 NSCLC, 39.3 µM; in the assay with A498 renal, over 77.5 µM; in the assay with TK-10 renal, over 100 µM; in the assay on KM12 colon it was over 63.2 µM.
Consider `CNC(=O)CCCN(C)C(=O)CCCCC(=O)N(C)C`, for which the TGI in the assay on RPMI-8226 leukemia, in the assay on HCC-2998 colon, in the assay on HCT-15 colon, in the assay with MOLT-4 leukemia, in the assay with MDA-MB-435 and in the assay on SF-295 CNS was over 100 µM throughout. The TGI in the assay on SF-539 CNS, in the assay on IGROV1 ovarian, in the assay with OVCAR-5 ovarian, with K-562 leukemia, with HT29 colon and in the assay on NCI-H522 lung was over 100 µM in each case. Further, the TGI in the assay with M14 melanoma, with HOP-92 NSCLC, in the assay on A498 renal, in the assay with TK-10 renal and in the assay on KM12 colon was over 100 µM each time.
